# Measured values as given in patent US5958890A, “Tricyclic compounds useful for inhibition of G-protein function and for treatment of proliferative diseases” (Schering Corporation, priority 1997, dated 1999).
# Key:
# [1] = molecular target: farnesyl protein transferase (Homo sapiens, UniProt P49354+P49356); experiment: FPT inhibition, in vitro enzyme assay (procedure of WO 95/10516); assay type: biochemical
# [2] = system: COS Cell; experiment: COS Cell IC50 (Cell-Based Assay, procedure of WO 95/10516)
# Method: FPT IC50 (inhibition of farnesyl protein transferase, in vitro enzyme assay) and COS Cell IC50 (Cell-Based Assay) were determined following the assay procedures described in WO 95/10516, published Apr. 20, 1995. GGPT IC50 (inhibition of geranylgeranyl protein transferase, in vitro enzyme assay), Cell Mat Assay, and anti-tumor activity (in vivo anti-tumor studies) could be determined by the assay procedures described in WO 95/10516. The disclosure of WO 95/10516 is incorporated herein by reference thereto.
IC50 [1] [nM],Structure (SMILES),IC50 [2] [nM]
0.0386,"NC(=O)N1CC[C@H](CC(=O)N2CCC(C3c4ncc(Br)cc4CCc4cc(Cl)cc(Cl)c43)CC2)C1 (single isomer, unassigned) [Example 1]",
,"NC(=O)N1CC[C@@H](CC(=O)N2CCC(C3c4ncc(Br)cc4CCc4cc(Cl)cc(Cl)c43)CC2)C1 (single isomer, unassigned) [Example 2]",0.03
